Test results reported in patent US9125930B2, “EGFR aptamer inhibitor for use in therapy and diagnosis” (CONSIGLIO NAZIONALE DELLE RICERCHE, priority 2010, dated 2015).

Tests used:
[1] = system: H460 cells; assay: Binding on H460 cells; design: species or system human; settings: low level of EGFR; 100 nM
Method: Binding experiments were performed with 5′-[^32P]-labeled RNA. For labeling 2′-F-Py RNAs were 5′-end dephosphorylated using bacterial alcaline phosphatase (Invitrogen, Carlsbad, Calif.) before [^32P]-5′-end-labeled using T4 kinase (Invitrogen) and γ-[^32P]-ATP (6×10^3 Ci/mmol, GE Healthcare Bio-Sciences, Uppsala, Sweden) according to the supplier's instructions.
For binding experiments on cells, 3.5×10^4 cells were plated in 24-well plates in triplicate and were incubated with CL4 42-81 aptamer the scrambled sequence used as a negative control at 100 nM concentration in 200 μl of DMEM serum free for 20 min at RT in the presence of 100 μg/ml polyinosine as a nonspecific competitor (Sigma, St. Louis, Mo.). After five washings with 500 μl DMEM, bound sequences were recovered in 300 μl of SDS 1%, and the amount of radioactivity recovered was counted.

[2] = system: caspase-3; assay: Caspase-3 in A549 xenograft tumor lysates; assay type: in vivo, mouse; settings: pooled tumor lysates
Method: (§1) FIG. 8. (A) A549 cells (2,000 cells/well in 24-well plates) were treated for 24 h or 48 h with CL4 42-81 or CL4 scrambled (200 nM-final concentration) and proliferation was determined by [^3H]-thymidine incorporation. Vertical bars indicate the standard deviation values. […] Day 0 marks the first day of injection. Data are shown as means±s.e.m. (n=8 tumors). (C) Three tumors per group selected randomly were excised, lysed, and the pooled lysates were immunoblotted with anti-pEGFR, anti-EGFR, anti-caspase-3, anti-cleaved caspase-8 and anti-αtubulin antibodies, as indicated. Molecular weights of indicated proteins are reported. (D) Cell lysates as in (C) were analyzed by caspase-3 fluorimetric assays.
(§2) Athymic CD-1 nude mice (nu/nu) were housed in a highly controlled microbiological environment, thus to guarantee specific pathogen free conditions. Mice were injected subcutaneously with 3×10^6 (in 100 μl) in vitro propagated A549. Sixteen non-necrotic tumors of about 0.5 cm in diameter were randomly divided into two groups of eight mice as follows: group 1, CL4 scrambled-treated; group 2, CL4 42-81-treated. Aptamers (200 pmols/injection) were injected intra-tumorally in 100-1 μl volumes three times a week for 16 days. Tumors were measured every 2 days.

[3] = Half life of the aptamer in serum; assay type: in vitro ADME; settings: in 10% serum
[4] = system: caspase-8; assay: Caspase-8 activity assay in A549 cells; assay type: cell-based, human; settings: A549, 200 nM, 6 hs
Method: A549 cells were treated with 200 nM CL4 42-81 or the scrambled aptamer for 6 hs. To determine caspase activity cell lysates (50 μg) were incubated at 37° C. for 1 h with 50 μM of a specific fluorometric substrate (Ac-DEVD-AFC for caspase-3, Ac-IETD-AFC for caspase-8, both from Alexis Bichemicals, San Diego, Calif.). Cleavage of the fluorometric substrate were determined using a Fluorometer, with excitation at 400 nm and emission at 505 nm wavelengths.

[5] = system: A431 tumors; assay: Tumor growth in A431 mouse xenograft; assay type: in vivo; settings: 200 pmoles intratumoral
Method: Athymic nude mice (nu/nu) were maintained in a sterile environment according to guidelines for Animal Care. Mice were inoculated with either 3×10^6 (in 100 μl) in vitro propagated A431 cells subcutaneously injected into each flank. Approximately 24 non-necrotic tumors for each tumor type, of about 1 cm in diameter, were randomly divided into three groups of eight mice per treatment group as follows: group 1, no treatment; group 2, treated with scrambled RNA as a negative control (200 pmols/injection); group 3, treated with CL4 42-81 (200 pmols/injection). Compounds were injected intra-tumorally in 100-1 μl volumes three times a week for two weeks. Day 0 marks the first day of injection. The aptamers may also be administered systemically, in particular when optimized by addition of polyethylene glycol (PEG).
The volume injections are small enough to preclude the compounds being forced inside the cells due to a nonspecific high-pressure injection. Tumors were measured every 3 days with calipers in three dimensions. The following formula was used to calculate tumor volume: VT=(W×L×H)×0.5236 (W, the shortest dimension; L, the longest dimension; H, the intermediate dimension). The growth curves are plotted as the means tumor volume±s.e.m. Statistical analysis of tumor size data was conducted using a one-way ANOVA. A P-value of 0.05 or less was considered to indicate a significant difference. […]

[6] = system: caspase-8; assay: Caspase-8 in A549 xenograft tumor lysates; assay type: in vivo, mouse; settings: pooled tumor lysates
Method: as §1, §2

Substance: CL4 42-81: 2′-fluoropyrimidine nuclease-resistant RNA aptamer of 39 nt: 5′ GCCUUAGUAACGUGCUUUGAUGUCGAUUCGACAGGAGGC 3′ (SEQ ID No. 1) (2'-fluoro at CU, RNA at AG, backbone not given here)
- binding on H460 cells [1]: does not bind
- caspase-3 activation in xenograft tumors [2]: activates
- half life of the aptamer [3]: 6 h
- activation of caspase-8 [4]: strongly induce activation
- tumor growth from day 9 to day 15 ([5]; three times a week): stopped to grow and was reduced in volume
- tumor volume ([5]; three times a week for two weeks): pronounced reduction in tumor volume
- caspase-8 activation in xenograft tumors [6]: activates
